Results reported in patent US10259810B2, “N-sulfonylated pyrazolo[3,4-b]pyridin-6-carboxamides and method of use” (AbbVie S.à.r.l., priority 2015, dated 2019).

Molecular target: T1, ΔF508-CFTR (Homo sapiens, UniProt P13569, DEL508-508)
T1 construct: host or cells: CFBE41o-, doxycycline-inducible
Experiment: CFTR cell surface levels using HRP-tagged ΔF508-CFTR expressing CFBE cells, intrinsic corrector capacity
Type: cell-based
Parameters: % Activation: concentration or dose not given beside the values
Conditions: HRP-tagged ΔF508-CFTR expressing CFBE41o- cells, compound alone (intrinsic corrector capacity), 20 hours at 33° C.; for EC50: read-out: EC50
Source text: Measuring CFTR Cell Surface Levels Using HRP-Tagged ΔF508-CFTR Expressing CFBE Cells
The HRP-tagged ΔF508-CFTR cell assay measures the expression of CFTR-ΔF508 at the plasma membrane. CFTR-ΔF508 has a folding defect leading to absence of protein at the plasma membrane. This assay is used to evaluate the capacity of compounds to increase the expression of CFTR-ΔF508 at the plasma membrane. The CFTR-ΔF508 is tagged with HRP (horse radish peroxidase enzyme) within the ECL4 (Extracellular loop 4) of CFTR (Phuan, P.-W. et al. Synergy-based small-molecule screen using a human lung epithelial cell line yields ΔF508-CFTR correctors that augment VX-809 maximal efficacy. Mol. Pharmacol. 86, 42-51 (2014)). When HRP-tagged ΔF508-CFTR is present at the plasma membrane, the HRP enzyme activity can be measured. The amount of CFTR-ΔF508 that can be rescued to the plasma membrane is correlated with the amount of functional enzyme that can be measured.
There are several ways to measure the capacity of compounds to rescue CFTR-ΔF508 to the plasma membrane; either compounds are evaluated on their own and the impact on plasma membrane levels is measured or compounds are evaluated in combination with a co-corrector, i.e. a compound that rescues CFTR-ΔF508 to the plasma membrane but rescue can be enhanced by addition of compounds due to a complementary mode of action.
Activity of Compounds for their Intrinsic Corrector Capacity:
For this purpose doxycycline-inducible ΔF508-CFTR-HRP expressing CFBE4lo− cells (obtained from Gergely Lukacs, McGill University) were maintained in MEM (Gibco; 31095) supplemented with 10% fetal bovine serum (Hyclone; SV30160.03) under puromycin (3 μg/mL) and G418 selection (0.2 mg/mL). For compound testing, cells were seeded at 4000 cells/well in white 384-well plates (Greiner; 781080) in 50 μL medium containing 0.5 μg/mL doxycycline and incubated for 68 hours at 37° C., 5% CO2. On day four, […] compounds diluted in PBS were added to the plates at a final DMSO concentration of 0.1%. All compound plates contained negative controls (DMSO) and positive controls ([…] corrector, 3-[(2R,4R)-4-({[1-(2,2-difluoro-1,3-benzodioxol-5-yl)cyclopropyl]carbonyl}amino)-7-methoxy-3,4-dihydro-2H-chromen-2-yl]benzoic acid). Cell plates were incubated at 33° C., 5% CO2 for 20 hours. On day five, the cells were washed five times with phosphate-buffered saline, and HRP activity was assayed by the addition of 50 μL/well of HRP substrate (SuperSignal™ West Pico Chemiluminescent Substrate, Thermo Scientific; 34080). After incubation for 15 minutes in the dark, chemiluminescence was measured using a plate reader (EnVision®, Perkin Elmer). Raw data were normalized to percentage activity values using the equation: 100×(Sample−Negative control)/(Positive control−Negative Control).

T1 sequence (P13569 with tags, fused parts or gaps DEL508-508): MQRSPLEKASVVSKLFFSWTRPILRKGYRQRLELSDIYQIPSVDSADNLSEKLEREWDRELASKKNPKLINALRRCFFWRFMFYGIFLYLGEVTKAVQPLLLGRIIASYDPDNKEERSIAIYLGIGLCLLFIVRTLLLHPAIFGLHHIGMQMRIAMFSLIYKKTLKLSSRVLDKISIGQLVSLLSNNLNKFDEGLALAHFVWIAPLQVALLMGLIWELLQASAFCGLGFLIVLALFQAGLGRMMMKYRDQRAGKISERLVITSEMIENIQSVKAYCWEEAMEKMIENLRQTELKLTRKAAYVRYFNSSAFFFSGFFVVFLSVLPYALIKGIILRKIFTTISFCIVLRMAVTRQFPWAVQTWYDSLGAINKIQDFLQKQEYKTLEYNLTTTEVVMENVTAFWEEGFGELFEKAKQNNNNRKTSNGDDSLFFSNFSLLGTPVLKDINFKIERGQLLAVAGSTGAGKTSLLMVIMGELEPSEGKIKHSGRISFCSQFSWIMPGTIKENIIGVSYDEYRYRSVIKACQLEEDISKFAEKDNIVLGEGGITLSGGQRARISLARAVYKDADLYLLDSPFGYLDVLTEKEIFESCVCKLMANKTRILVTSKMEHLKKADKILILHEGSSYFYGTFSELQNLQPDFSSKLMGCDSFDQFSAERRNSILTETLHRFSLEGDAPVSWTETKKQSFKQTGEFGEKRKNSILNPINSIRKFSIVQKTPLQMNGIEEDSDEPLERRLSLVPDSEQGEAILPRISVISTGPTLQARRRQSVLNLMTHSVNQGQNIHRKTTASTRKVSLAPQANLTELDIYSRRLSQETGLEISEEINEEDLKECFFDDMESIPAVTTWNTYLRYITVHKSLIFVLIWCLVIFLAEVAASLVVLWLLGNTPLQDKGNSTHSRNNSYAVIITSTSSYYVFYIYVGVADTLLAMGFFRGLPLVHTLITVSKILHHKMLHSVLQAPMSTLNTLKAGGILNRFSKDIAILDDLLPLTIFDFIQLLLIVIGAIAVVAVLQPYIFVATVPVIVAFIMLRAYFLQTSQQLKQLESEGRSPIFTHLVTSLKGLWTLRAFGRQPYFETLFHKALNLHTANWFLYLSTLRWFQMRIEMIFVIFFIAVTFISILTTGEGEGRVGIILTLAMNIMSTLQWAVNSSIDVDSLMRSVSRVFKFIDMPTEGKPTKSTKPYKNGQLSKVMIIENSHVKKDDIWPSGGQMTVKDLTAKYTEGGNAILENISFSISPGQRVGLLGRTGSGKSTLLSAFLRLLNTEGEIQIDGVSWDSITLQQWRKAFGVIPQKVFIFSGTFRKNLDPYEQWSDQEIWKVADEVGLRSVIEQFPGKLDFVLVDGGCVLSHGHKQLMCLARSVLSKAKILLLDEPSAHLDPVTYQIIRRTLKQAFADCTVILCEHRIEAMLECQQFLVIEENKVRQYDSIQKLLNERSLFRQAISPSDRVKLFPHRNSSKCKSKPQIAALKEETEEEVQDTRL

Row | SMILES | % Activation | EC50
1 | Cc1nn(-c2ccccc2)c2nc(C(=O)NS(=O)(=O)C(F)(F)F)cc(-c3ccc(N4CCOCC4)cc3)c12 [Compound 3, 3-methyl-4-[4-(morpholin-4-yl)phenyl]-1-phenyl-N-(trifluoromethanesulfonyl)-1H-pyrazolo[3,4-b]pyridine-6-carboxamide] | 53.08% | 3340 nM
2 | O=C(NS(=O)(=O)C1CC1)c1cc(OCC2CCOCC2)c2c(C3CCC3)nn(-c3ccccc3)c2n1 [Compound 333, 3-cyclobutyl-N-(cyclopropanesulfonyl)-4-[(oxan-4-yl)methoxy]-1-phenyl-1H-pyrazolo[3,4-b]pyridine-6-carboxamide] | 180% | 82.8 nM
3 | CCS(=O)(=O)NC(=O)c1cc(OCC2CCOCC2)c2c(C3CCC3)nn(-c3ccccc3)c2n1 [Compound 335, 3-cyclobutyl-N-(ethanesulfonyl)-4-[(oxan-4-yl)methoxy]-1-phenyl-1H-pyrazolo[3,4-b]pyridine-6-carboxamide] | 171.65% | 150 nM
4 | CCOC(=O)N1CCC(NS(=O)(=O)NC(=O)c2cc(N3CCC(COC)CC3)c3c(C4CCC4)nn(-c4ccc(F)cc4)c3n2)CC1 [Compound 673, ethyl 4-[({3-cyclobutyl-1-(4-fluorophenyl)-4-[4-(methoxymethyl)piperidin-1-yl]-1H-pyrazolo[3,4-b]pyridine-6-carbonyl}sulfamoyl)amino]piperidine-1-carboxylate] | 423.5% | 288 nM
5 | COCC1CCN(c2cc(C(=O)NS(=O)(=O)NC3COC3)nc3c2c(C2CCC2)nn3-c2ccc(F)cc2)CC1 [Compound 674, 3-cyclobutyl-1-(4-fluorophenyl)-4-[4-(methoxymethyl)piperidin-1-yl]-N-[(oxetan-3-yl)sulfamoyl]-1H-pyrazolo[3,4-b]pyridine-6-carboxamide] | 389.5% | 156 nM
6 | COCC1CCN(c2cc(C(=O)NS(=O)(=O)NC3CCOCC3)nc3c2c(C2CCC2)nn3-c2ccc(F)cc2)CC1 [Compound 675, 3-cyclobutyl-1-(4-fluorophenyl)-4-[4-(methoxymethyl)piperidin-1-yl]-N-[(oxan-4-yl)sulfamoyl]-1H-pyrazolo[3,4-b]pyridine-6-carboxamide] | 398.1% | 316 nM
7 | COCC1CCN(c2cc(C(=O)NS(=O)(=O)N3CCC(N4CCOCC4)CC3)nc3c2c(C2CCC2)nn3-c2ccc(F)cc2)CC1 [Compound 676, 3-cyclobutyl-1-(4-fluorophenyl)-4-[4-(methoxymethyl)piperidin-1-yl]-N-[4-(morpholin-4-yl)piperidine-1-sulfonyl]-1H-pyrazolo[3,4-b]pyridine-6-carboxamide] | 251.1% | 251 nM
8 | CCOC(=O)N1CCN(c2cc(C(=O)NS(=O)(=O)CCOC)nc3c2c(C2CCC2)nn3-c2ccc(F)cc2)CC1 [Compound 677, ethyl 4-{3-cyclobutyl-1-(4-fluorophenyl)-6-[(2-methoxyethanesulfonyl)carbamoyl]-1H-pyrazolo[3,4-b]pyridin-4-yl}piperazine-1-carboxylate] | 458.5% | 171 nM
9 | CCOC(=O)N1CCN(c2cc(C(=O)NS(=O)(=O)N3CCOCC3)nc3c2c(C2CCC2)nn3-c2ccc(F)cc2)CC1 [Compound 678, ethyl 4-{3-cyclobutyl-1-(4-fluorophenyl)-6-[(morpholine-4-sulfonyl)carbamoyl]-1H-pyrazolo[3,4-b]pyridin-4-yl}piperazine-1-carboxylate] | 345.1% | 221 nM
10 | CCOC(=O)N1CCN(c2cc(C(=O)NS(C)(=O)=O)nc3c2c(C2CCC2)nn3-c2ccc(F)cc2)CC1 [Compound 679, ethyl 4-{3-cyclobutyl-1-(4-fluorophenyl)-6-[(methanesulfonyl)carbamoyl]-1H-pyrazolo[3,4-b]pyridin-4-yl}piperazine-1-carboxylate] | 476.9% | 132 nM
